Measured values published in ChEMBL document CHEMBL3351341, “Discovery of a potent and selective EGFR inhibitor (AZD9291) of both sensitizing and T790M resistance mutations that spares the wild type form of the receptor” (J Med Chem, 2014).
pIC50: −log10 of the molar value. Converted amounts (≈) assume the structure as drawn.

Tests used:
[1] = molecular target: Voltage-gated inwardly rectifying potassium channel KCNH2 (Homo sapiens, UniProt Q12809); test: Inhibition of human ERG
[2] = molecular target: Insulin-like growth factor 1 receptor (Homo sapiens, UniProt P08069); test: Inhibition of IGF1R (unknown origin)
[3] = Intrinsic clearance in rat hepatocytes measured per 10^6 cells; assay type: ADME, cell-based, Hepatocyte; conditions: read-out: CLH
[4] = Lipophilicity, log D of the compound at pH 7.4; assay type: physicochemical; conditions: buffer
[5] = Unbound fraction in nude mouse plasma; assay type: ADME, cell-free
[6] = Intrinsic clearance in human hepatocytes measured per 10^6 cells; assay type: ADME, cell-based, Hepatocyte; conditions: read-out: CLH
[7] = Cytotoxicity against human PC9 cells harboring EGFR exon 19 deletion activating mutant assessed as growth inhibition after 72 hrs by SYTOX green nucleic acid staining-based fluorescence assay; assay type: functional, PC-9
[8] = Cytotoxicity against human Calu3 cells assessed as growth inhibition after 72 hrs by SYTOX green nucleic acid staining-based fluorescence assay; assay type: functional, Calu-3
NCI-H1975 [9] = test: Cytotoxicity against human NCI-H1975 cells harboring EGFR L858R/[…] double mutant assessed as growth inhibition after 72 hrs by SYTOX green nucleic acid staining-based fluorescence assay; assay type: functional
Plasma [10] = test: Drug metabolism in rat plasma treated with N-[2-(2-Dimethylaminoethylmethylamino)-4-methoxy-5-[[4-(1-methylindol-3-yl)pyrimidin-2-yl]amino]phenyl]prop-2-enamide; assay type: ADME, cell-free
Plasma [11] = test: Drug metabolism in mouse plasma treated with N-[2-(2-Dimethylaminoethylmethylamino)-4-methoxy-5-[[4-(1-methylindol-3-yl)pyrimidin-2-yl]amino]phenyl]prop-2-enamide; assay type: ADME, cell-free
[12] = Thermodynamic solubility of the compound at pH 7.4; assay type: physicochemical; conditions: buffer, read-out: Therm_solubility
[13] = (§1) Unbound fraction in human plasma; assay type: ADME, cell-free
[14] = Fraction unbound in Han Wistar rat plasma; assay type: ADME, cell-free
NCI-H1975 [15] = test: Antitumor activity against human NCI-H1975 cells harboring EGFR L858R/[…] double mutant xenografted in SCID mouse assessed as tumor growth inhibition at 20 mg/kg/day, po qd for 7 days relative to control; assay type: functional; conditions: NCI-H1975, 168 h, read-out: TGI
A-431 [16] = test: Antitumor activity against human A431 cells xenografted in SCID mouse assessed as tumor growth inhibition at […], po qd for 7 days relative to control; assay type: functional
A-431 [17] = test: Antitumor activity against human A431 cells xenografted in SCID mouse assessed as tumor growth inhibition at 5 mg/kg/day, po qd for 7 days relative to control; assay type: functional
NCI-H1975 [18] = test: Antitumor activity against human NCI-H1975 cells harboring EGFR L858R/[…] double mutant xenografted in SCID mouse assessed as tumor growth inhibition at 10 mg/kg/day, po qd for 7 days relative to control; assay type: functional
A-431 [19] = test: Antitumor activity against human A431 cells xenografted in SCID mouse assessed as tumor growth inhibition at 20 mg/kg/day, po qd for 7 days relative to control; assay type: functional; conditions: A-431, 168 h, read-out: TGI
NCI-H1975 [20] = test: Antitumor activity against human NCI-H1975 cells harboring EGFR L858R/[…] double mutant xenografted in SCID mouse assessed as tumor growth inhibition at […], po qd for 7 days relative to control; assay type: functional
A-431 [21] = test: Antitumor activity against human A431 cells xenografted in SCID mouse assessed as tumor growth inhibition at 10 mg/kg/day, po qd for 7 days relative to control; assay type: functional
NCI-H1975 [22] = test: Antitumor activity against human NCI-H1975 cells harboring EGFR L858R/[…] double mutant xenografted in SCID mouse assessed as tumor growth inhibition at 5 mg/kg/day, po qd for 7 days relative to control; assay type: functional
[23] = Half life of the compound by GSH reduction assay; assay type: physicochemical; conditions: glutathione (GSH)
Insulin receptor = Insulin receptor (Homo sapiens, UniProt P06213); test: Inhibition of INSR (unknown origin)
Rattus norvegicus [24] = test: Toxicity in rat assessed as hyperglycemia at 200 mg/kg, po as single dose measured over 24 hrs; assay type: organism-based; parameters: dose 200 mg/kg, route oral; conditions: in vivo
Plasma [25] = test: Drug metabolism in rat plasma assessed as loss of indole N-methyl group; assay type: ADME, cell-free
[26] = Antitumor activity against human PC9 cells harboring EGFR exon 19 deletion activating mutant xenografted in SCID mouse assessed as tumor growth inhibition at 10 mg/kg/day, po qd for 7 days relative to control; assay type: functional, PC-9
Cavia porcellus = test: Cardiotoxicity in anesthetized guinea pig assessed as QT prolongation at fCmax concentration; assay type: toxicity, organism-based; conditions: in vivo
Rattus norvegicus [27] = test: Clearance in iv dosed Han Wistar rat; assay type: ADME, organism-based; conditions: in vivo
Rattus norvegicus [28] = test: Toxicity in rat at 200 mg/kg, po as single dose measured over 24 hrs; assay type: organism-based; parameters: dose 200 mg/kg, route oral; conditions: in vivo
[29] = Cmax in mouse at 10 mg/kg, po; assay type: ADME, organism-based; parameters: dose 10 mg/kg, route oral; conditions: in vivo
[30] = Oral bioavailability in Han Wistar rat at 5 mg/kg; assay type: ADME, organism-based; conditions: in vivo
Plasma [31] = test: Drug metabolism in rat plasma assessed as dealkylation of compound; assay type: ADME, cell-free
Plasma [32] = test: Drug metabolism in mouse plasma assessed as loss of indole N-methyl group; assay type: ADME, cell-free
Plasma [33] = test: as §1; assay type: ADME, cell-free
Plasma [34] = test: Drug metabolism in mouse plasma assessed as dealkylation of compound; assay type: ADME, cell-free
[35] = Mus musculus, A-431, 168 h, read-out: TGI
[36] = Mus musculus, NCI-H1975, 168 h, read-out: TGI

Insulin-like growth factor 1 receptor, sequence (P08069 31-736 limits assumed): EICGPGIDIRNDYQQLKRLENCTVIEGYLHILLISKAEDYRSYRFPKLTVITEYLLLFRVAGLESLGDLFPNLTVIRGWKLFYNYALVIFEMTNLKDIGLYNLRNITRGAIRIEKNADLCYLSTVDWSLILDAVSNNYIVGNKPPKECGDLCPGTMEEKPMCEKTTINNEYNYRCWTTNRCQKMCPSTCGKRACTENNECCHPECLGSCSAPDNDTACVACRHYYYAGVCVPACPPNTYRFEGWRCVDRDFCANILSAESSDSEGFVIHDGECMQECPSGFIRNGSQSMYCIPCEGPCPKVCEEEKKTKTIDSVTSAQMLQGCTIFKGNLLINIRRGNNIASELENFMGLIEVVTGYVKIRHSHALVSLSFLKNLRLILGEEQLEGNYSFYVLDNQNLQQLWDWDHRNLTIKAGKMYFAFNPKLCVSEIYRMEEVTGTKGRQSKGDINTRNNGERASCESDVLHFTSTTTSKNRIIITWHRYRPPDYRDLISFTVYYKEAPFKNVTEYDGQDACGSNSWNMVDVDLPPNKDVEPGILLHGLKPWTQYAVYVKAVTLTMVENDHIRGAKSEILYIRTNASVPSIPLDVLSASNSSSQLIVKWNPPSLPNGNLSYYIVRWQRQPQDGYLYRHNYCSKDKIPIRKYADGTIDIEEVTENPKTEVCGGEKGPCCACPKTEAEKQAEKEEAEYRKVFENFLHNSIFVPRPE
Insulin-like growth factor 1 receptor, sequence (P08069 741-1367 limits assumed): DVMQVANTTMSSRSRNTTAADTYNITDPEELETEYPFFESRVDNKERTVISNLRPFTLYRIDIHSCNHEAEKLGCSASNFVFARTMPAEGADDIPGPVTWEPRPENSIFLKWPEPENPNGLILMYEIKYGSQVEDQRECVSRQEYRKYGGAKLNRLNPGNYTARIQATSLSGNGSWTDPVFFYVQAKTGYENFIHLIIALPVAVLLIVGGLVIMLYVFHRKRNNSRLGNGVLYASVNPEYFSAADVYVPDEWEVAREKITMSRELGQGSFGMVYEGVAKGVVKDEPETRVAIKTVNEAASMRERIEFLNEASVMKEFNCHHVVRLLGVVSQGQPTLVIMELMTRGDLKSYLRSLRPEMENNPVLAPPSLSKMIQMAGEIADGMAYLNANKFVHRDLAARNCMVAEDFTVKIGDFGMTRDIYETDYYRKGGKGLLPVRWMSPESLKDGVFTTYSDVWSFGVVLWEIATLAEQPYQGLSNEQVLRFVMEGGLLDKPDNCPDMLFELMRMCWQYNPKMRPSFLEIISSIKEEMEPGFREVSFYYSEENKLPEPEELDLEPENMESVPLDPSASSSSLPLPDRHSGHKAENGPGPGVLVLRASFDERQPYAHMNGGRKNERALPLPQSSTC
Voltage-gated inwardly rectifying potassium channel KCNH2, sequence (Q12809 whole entry): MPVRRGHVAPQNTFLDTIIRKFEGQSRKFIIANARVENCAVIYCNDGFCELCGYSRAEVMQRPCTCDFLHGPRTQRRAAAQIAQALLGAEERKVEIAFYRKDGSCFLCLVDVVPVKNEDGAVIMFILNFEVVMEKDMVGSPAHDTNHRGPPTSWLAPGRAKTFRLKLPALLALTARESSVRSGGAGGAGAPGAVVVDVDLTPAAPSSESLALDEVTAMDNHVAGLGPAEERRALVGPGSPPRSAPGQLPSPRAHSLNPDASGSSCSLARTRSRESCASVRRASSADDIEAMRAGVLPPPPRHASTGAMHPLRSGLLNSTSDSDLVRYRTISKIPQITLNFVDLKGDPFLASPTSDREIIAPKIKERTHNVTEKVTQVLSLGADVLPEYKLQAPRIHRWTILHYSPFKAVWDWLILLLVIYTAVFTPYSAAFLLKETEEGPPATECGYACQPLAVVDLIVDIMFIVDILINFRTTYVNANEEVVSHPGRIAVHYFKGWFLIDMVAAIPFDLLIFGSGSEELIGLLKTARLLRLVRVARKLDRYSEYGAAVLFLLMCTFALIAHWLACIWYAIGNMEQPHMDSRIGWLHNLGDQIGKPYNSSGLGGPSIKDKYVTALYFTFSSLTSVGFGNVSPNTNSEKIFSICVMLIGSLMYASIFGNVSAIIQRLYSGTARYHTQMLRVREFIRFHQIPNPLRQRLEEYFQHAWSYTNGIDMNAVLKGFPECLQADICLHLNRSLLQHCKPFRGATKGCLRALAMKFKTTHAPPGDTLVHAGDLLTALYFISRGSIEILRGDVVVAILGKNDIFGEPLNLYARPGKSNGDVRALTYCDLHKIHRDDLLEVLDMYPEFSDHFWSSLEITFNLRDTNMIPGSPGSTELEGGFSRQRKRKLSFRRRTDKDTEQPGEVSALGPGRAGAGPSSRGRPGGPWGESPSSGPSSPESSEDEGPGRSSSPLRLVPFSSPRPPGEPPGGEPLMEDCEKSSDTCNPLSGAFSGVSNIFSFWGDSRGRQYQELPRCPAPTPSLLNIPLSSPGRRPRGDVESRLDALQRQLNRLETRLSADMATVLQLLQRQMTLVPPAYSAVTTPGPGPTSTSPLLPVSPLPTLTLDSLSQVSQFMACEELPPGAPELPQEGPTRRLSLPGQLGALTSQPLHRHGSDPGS
Insulin receptor, sequence (P06213 28-758 limits assumed): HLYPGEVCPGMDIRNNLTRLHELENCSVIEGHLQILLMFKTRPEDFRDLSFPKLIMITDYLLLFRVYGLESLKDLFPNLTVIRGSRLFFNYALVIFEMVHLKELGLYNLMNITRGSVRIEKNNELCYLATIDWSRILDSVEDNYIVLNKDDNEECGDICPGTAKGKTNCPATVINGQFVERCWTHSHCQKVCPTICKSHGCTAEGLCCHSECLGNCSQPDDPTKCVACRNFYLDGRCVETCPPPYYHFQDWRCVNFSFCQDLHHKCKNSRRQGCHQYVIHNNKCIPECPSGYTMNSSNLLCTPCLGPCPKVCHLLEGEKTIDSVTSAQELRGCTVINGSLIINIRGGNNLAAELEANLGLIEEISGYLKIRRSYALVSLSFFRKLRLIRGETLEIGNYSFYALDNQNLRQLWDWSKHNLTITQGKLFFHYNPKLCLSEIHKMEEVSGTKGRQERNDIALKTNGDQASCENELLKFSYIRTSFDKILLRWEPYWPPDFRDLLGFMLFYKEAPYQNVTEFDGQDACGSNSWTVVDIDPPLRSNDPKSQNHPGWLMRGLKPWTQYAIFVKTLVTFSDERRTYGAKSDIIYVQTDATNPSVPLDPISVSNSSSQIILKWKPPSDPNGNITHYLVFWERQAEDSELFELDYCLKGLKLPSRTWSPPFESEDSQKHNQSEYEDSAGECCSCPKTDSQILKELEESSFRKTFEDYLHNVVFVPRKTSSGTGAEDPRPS
Insulin receptor, sequence (P06213 763-1382 limits assumed): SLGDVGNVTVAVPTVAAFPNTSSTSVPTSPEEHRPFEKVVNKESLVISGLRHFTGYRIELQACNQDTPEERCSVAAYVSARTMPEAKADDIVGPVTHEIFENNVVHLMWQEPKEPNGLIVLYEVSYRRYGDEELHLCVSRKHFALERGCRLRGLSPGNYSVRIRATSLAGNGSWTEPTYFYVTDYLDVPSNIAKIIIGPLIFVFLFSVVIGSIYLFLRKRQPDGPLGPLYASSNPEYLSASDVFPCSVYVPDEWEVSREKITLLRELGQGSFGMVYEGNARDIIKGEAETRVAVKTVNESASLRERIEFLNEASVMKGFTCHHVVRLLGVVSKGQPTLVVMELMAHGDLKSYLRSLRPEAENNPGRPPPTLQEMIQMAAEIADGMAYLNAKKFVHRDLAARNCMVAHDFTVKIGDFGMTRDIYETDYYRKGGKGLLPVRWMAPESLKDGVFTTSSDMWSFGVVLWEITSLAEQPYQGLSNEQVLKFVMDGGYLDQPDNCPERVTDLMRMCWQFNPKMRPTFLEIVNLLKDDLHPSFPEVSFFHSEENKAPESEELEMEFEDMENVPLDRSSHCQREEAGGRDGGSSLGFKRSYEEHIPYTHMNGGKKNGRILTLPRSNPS

In the case of `C=CC(=O)Nc1cc(Nc2nccc(-c3cn(C)c4ccccc34)n2)c(OC)cc1N(C)CCNC`, the pIC50 [1] was under 4.48, the pIC50 [2] was 5.80 and the hepatocyte CLint [3] was 50 µL/min/1e6 cells. The logD [4] was 2.3, the fraction unbound [5] was 0.0105 and the hepatocyte CLint [6] was under 3 µL/min/1e6 cells. For the same compound, the GI50 ([7]; Homo sapiens, PC-9, 72 h) was 15 nM, the GI50 ([8]; Homo sapiens, Calu-3, 72 h) was 537 nM and the GI50 (NCI-H1975 [9]; Homo sapiens, NCI-H1975, 72 h) was 19 nM. The Drug metabolism (Plasma [10]) was “metabolite_detected”, the Drug metabolism (Plasma [11]) was “metabolite_detected” and the solubility thermodynamic [12] was 14 µM (≈ 6.8 µg/mL). It also gave a fraction unbound [13] of 0.039 and a fraction unbound [14] of 0.023.
Compound `CN(C)C/C=C/C(=O)Nc1cc2c(Nc3ccc(F)c(Cl)c3)ncnc2cc1O[C@H]1CCOC1` [AFATINIB] has an inhibition in vivo at 20 mg/kg/day (NCI-H1975 [15]) of 74%, an inhibition in vivo at […] (A-431 [16]; A-431, 168 h, read-out: TGI) of 84% and an inhibition in vivo at 5 mg/kg/day (A-431 [17]; [35]) of 84%. For the same compound, the inhibition in vivo at 10 mg/kg/day (NCI-H1975 [18]; [36]) was 25%, the inhibition in vivo at 20 mg/kg/day (A-431 [19]) was 158% and the inhibition in vivo at […] (NCI-H1975 [20]; NCI-H1975, 168 h, read-out: TGI) was 16%. It also gave an inhibition in vivo at 10 mg/kg/day (A-431 [21]; [35]) of 131% and an inhibition in vivo at 5 mg/kg/day (NCI-H1975 [22]; [36]) of 23%.
With `C=CC(=O)Nc1cc(Nc2nccc(-c3cn(C)c4ccccc34)n2)c(OC)cc1N(C)CCN(C)C` [OSIMERTINIB] the half-life [23] was 2.02 h, the pIC50 (Insulin receptor) was 6.04 and the Activity (Rattus norvegicus [24]) was “Non-toxic”. The Drug metabolism (Plasma [25]) was “metabolite_detected”, the pIC50 [2] was 5.54 and the TGI [26] was 267%. For the same compound, the hepatocyte CLint [3] was 27 µL/min/1e6 cells, the Activity (Cavia porcellus) was “Non-toxic” and the logD [4] was 3.4. For the same compound, the fraction unbound [5] was 0.034, the hepatocyte CLint [6] was 3.4 µL/min/1e6 cells and the GI50 [7] was 23 nM. For the same compound, the clearance (Rattus norvegicus [27]) was 45 mL/min/kg, the GI50 [8] was 264 nM and the Activity (Rattus norvegicus [28]) was “Non-toxic”. The GI50 (NCI-H1975 [9]) was […], the Cmax [29] was 380 nM and the TGI (A-431 [16]) was 65%. The TGI (A-431 [17]) was 79%, the bioavailability [30] was 45% and the Drug metabolism (Plasma [31]) was “metabolite_detected”. For the same compound, the TGI (NCI-H1975 [18]) was 148%, the Drug metabolism (Plasma [32]) was “metabolite_detected” and the solubility thermodynamic [12] was 7 µM (≈ 3.5 µg/mL). For the same compound, the TGI (NCI-H1975 [20]) was 120%, the TGI (A-431 [21]) was 102% and the Fu (Plasma [33]) was 2.9%. For the same compound, the Drug metabolism (Plasma [34]) was “metabolite_detected”, the fraction unbound [14] was 0.032 and the TGI (NCI-H1975 [22]) was 134%.
